Test results: the supplement of paper PMC10307832

Tests used:
Assay in all cases: relative viability (nuclei count vs DMSO), 5 days (fraction); higher = more cells survive
Venetoclax + Tozasertib = compound: CC1(C)CCC(CN2CCN(c3ccc(C(=O)NS(=O)(=O)c4ccc(NCC5CCOCC5)c([N+](=O)[O-])c4)c(Oc4cnc5[nH]ccc5c4)c3)CC2)=C(c2ccc(Cl)cc2)C1 [Venetoclax] + Cc1cc(Nc2cc(N3CCN(C)CC3)nc(Sc3ccc(NC(=O)C4CC4)cc3)n2)n[nH]1 [Tozasertib] (partner 0.1 µM)
Method in brief: (§1)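 Lung cancer cell lines in 1536-well plates were dosed by pin tool the day after seeding, either with one drug alone or with a fixed anchor-drug dose plus five library-drug doses (not always all listed) in √10 steps. After 5 days, cells were fixed and their nuclei stained in one step (final 0.05% Triton X-100, 1% formaldehyde, 1 ug/ml Hoechst), then counted on 4× images. Relative viability is the nuclei count in treated wells divided by that in vehicle wells. Values are medians of duplicate plates.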

Selumetinib + Bortezomib = compound: Cn1cnc2c(F)c(Nc3ccc(Br)cc3Cl)c(C(=O)NOCCO)cc21 [Selumetinib] + CC(C)C[C@H](NC(=O)[C@H](Cc1ccccc1)NC(=O)c1cnccn1)B(O)O [Bortezomib] (partner 0.002 µM)
Method in brief: as §1

Selumetinib + Lapatinib = compound: Cn1cnc2c(F)c(Nc3ccc(Br)cc3Cl)c(C(=O)NOCCO)cc21 [Selumetinib] + CS(=O)(=O)CCNCc1ccc(-c2ccc3ncnc(Nc4ccc(OCc5cccc(F)c5)c(Cl)c4)c3c2)o1 [Lapatinib] (partner 2 µM)
Method in brief: as §1

Venetoclax + Phenformin = compound: CC1(C)CCC(CN2CCN(c3ccc(C(=O)NS(=O)(=O)c4ccc(NCC5CCOCC5)c([N+](=O)[O-])c4)c(Oc4cnc5[nH]ccc5c4)c3)CC2)=C(c2ccc(Cl)cc2)C1 [Venetoclax] + N=C(N)NC(=N)NCCc1ccccc1 [Phenformin] (partner 250 µM)
Method in brief: as §1

Cell Line | relative viability (Venetoclax + Tozasertib; first compound 0.01 µM) | relative viability (Venetoclax + Tozasertib; first compound 0.03162 µM) | relative viability (Venetoclax + Tozasertib; first compound 0.1 µM) | relative viability (Venetoclax + Tozasertib; first compound 0.3162 µM) | relative viability (Venetoclax + Tozasertib; first compound 1 µM) | relative viability (Selumetinib + Bortezomib; first compound 0.02 µM) | relative viability (Selumetinib + Bortezomib; first compound 0.06325 µM) | relative viability (Selumetinib + Bortezomib; first compound 0.2 µM) | relative viability (Selumetinib + Bortezomib; first compound 0.6325 µM) | relative viability (Selumetinib + Lapatinib; first compound 0.02 µM) | relative viability (Selumetinib + Lapatinib; first compound 0.06325 µM) | relative viability (Selumetinib + Lapatinib; first compound 0.2 µM) | relative viability (Selumetinib + Lapatinib; first compound 0.6325 µM) | relative viability (Venetoclax + Phenformin; first compound 0.01 µM) | relative viability (Venetoclax + Phenformin; first compound 0.03162 µM) | relative viability (Venetoclax + Phenformin; first compound 0.1 µM) | relative viability (Venetoclax + Phenformin; first compound 0.3162 µM) | relative viability (Venetoclax + Phenformin; first compound 1 µM)
NCI-H2405 | 0.741 | 0.783 | 0.632 | 0.736 | 0.645 | 0.971 | 0.928 | 0.858 | 0.744 | 1.05 | 0.852 | 0.644 | 0.591 | 0.343 | 0.357 | 0.348 | 0.404 | 0.379
NCI-H3122 | 0.422 | 0.565 | 0.357 | 0.392 | 0.405 | 0.896 | 0.811 | 0.779 | 0.78 | 0.882 | 0.805 | 0.801 | 0.754 | 0.366 | 0.361 | 0.341 | 0.339 | 0.282
PC-3 [JPC-3] | 0.841 | 0.909 | 0.816 | 0.88 | 0.853 | 0.822 | 0.813 | 0.669 | 0.551 | 0.45 | 0.4 | 0.415 | 0.45 | 0.503 | 0.51 | 0.487 | 0.468 | 0.513
PC-14 | 0.646 | 0.601 | 0.576 | 0.553 | 0.531 | 0.889 | 0.815 | 0.926 | 0.766 | 0.285 | 0.252 | 0.234 | 0.207 | 0.562 | 0.747 | 0.717 | 0.709 | 0.499
RERF-LC-KJ | 0.444 | 0.504 | 0.533 | 0.45 | 0.443 | 1.05 | 1.01 | 0.92 | 0.944 | 0.768 | 0.885 | 0.828 | 0.811 | 0.382 | 0.414 | 0.418 | 0.458 | 0.442
SK-LU-1 | 0.341 | 0.316 | 0.275 | 0.336 | 0.286 | 1.25 | 1.28 | 0.918 | 0.715 | 0.964 | 0.773 | 0.751 | 0.479 | 0.537 | 0.613 | 0.526 | 0.531 | 0.505
SW 1573 | 0.217 | 0.206 | 0.207 | 0.137 | 0.171 | 1.01 | 0.86 | 0.802 | 0.932 | 1.19 | 1.01 | 1.04 | 0.788 | 0.425 | 0.373 | 0.327 | 0.47 | 0.392
